# Results taken from patent US4863748A, “Dietary products and uses comprising methylsulfonylmethane” (priority 1986, dated 1989).
# Tests used:
# lymphomas = conditions: oral, cited from earlier work
# Giardia lamblia = assay: Treatment of Giardia infection in a subject (Example 28(b)); assay type: in vivo, human; conditions: 500 mg orally three times/24 hours × 14 days
# Procedure: One subject with confirmed Giardia, apparently contacted from contaminated water in a primitive area, was given 500 mg of methylsulfonylmethane orally three times/24 hours×14 days. By the eighth day they were asymptomatic.
# Trichomonas vaginalis = assay: Treatment of Trichomonas vaginalis infection in subjects (Example 28(a)); assay type: in vivo, human
# From the text: Both had prior courses of therapy for this disorder without adequate response. […]
# One subject was later reinfected by their sexual partner but the reinfection was cleared employing a daily douche of 5% aqueous methylsulfonylmethane for one week.
# [1] = Naturally occurring body levels of methylsulfonylmethane; assay type: in vivo, animals
# From the text: The methylsulfonylmethane is usually provided in the aninmal's normal feed rations, periodically throughout the day or on successive days, or both, e.g., for 2 to 21 days or even longer. The daily food ration appropriate for the animal being fed is supplemented with an amount of methylsulfonylmethane calculated to correspond to a predetermined amount per total body weight of the animals being fed. The exact amount of methylsulfonylmethane ingested each day is not always critical, particularly when methylsulfonylmethane administration is over an extended period of days, because the ingested methylsulfonylmethane accumulates in the body tissues and fluids, i.e., reaches an effective titer. Methylsulfonylmethane-supplemented rations providing levels of as low as 0.5-1 mg/kg animal body weight are sometimes effective and levels as high as 300 mg/kg body weight or more are well tolerated. The usual target level per individual animal is about 0.2-2.0 mg/kg body weight preferably 0.5-1.0 mg per kg body weight. Total daily supplements corresponding to up to about 1 gm/kg body weight or more, are preferably employed, depending on the degree of deficiency. Healthy animals often have methylsulfonylmethane blood levels of at least 1 ppm, and desirably, enough methylsulfonylmethane is provided to raise blood levels to above 1 ppm. […]
# [2] = tested on: t-lymphocyte dependent and t-lymphocyte independent immune responses; assay: Humoral immune responses in mice (Example 37); assay type: in vivo, balb/c strain mice; conditions: 3% by wt. in water
# Procedure: Laboratory mice genetically predisposed to lymphoma development were selected for this test. Humoral immunity participation was measured as was the effect of methylsulfonylmethane on an animal's life span. One set of 12 mice were maintained as controls. The treated (T) group received identical treatment except for their water given ad lib, which contained 3% by wt. of methylsulfonylmethane in solution.
# By month 4 of this test, all controls were dead, due to lymphoma development. […] These normal balb/c strain mice of group T were tested for t-lymphocyte dependent (t-d) and t-lymphocyte independent (t-i) immune responses. […] Based on these preliminary results, at high enough daily rates of ingestion, methylsulfonylmethane stimulates humoral immunity thereby providing protection to otherwise lethal spontaneous mouse lymphomas.
# [3] = Tolerance of intravenous infusion; assay type: in vivo, human patients; conditions: for side effect at infusion rate as high as 2 gm/kg/hr: i.v., some patients
# Procedure: The amount of methylsulfonylmethane intravenously administered can vary substantially because of its lack of toxicity and adverse side effects. Individual doses can vary from about 0.01 to 2 gm/kg, preferably from about 0.1 to 1 gm/kg, on a body weight basis, the usual dosage range is about 0.25 to 0.75 gm/kg, preferably about 0.5 gm/kg.
# When large amounts are administered, e.g., in the order of 1 g/kg of body weight or more, i.e., infusion of 5% to 10% solution of methylsulfonylmethane in water, physiological saline or 5% dextrose is preferred. The rate of administration is preferably no greater than about 1 gm/kg/hr, although infusion rates as high as 2 gm/kg/hr are tolerated by patients, except for light-headedness of the type experienced by some blood donors is experienced by some patients at this rate.
# Such massive i.v. administrations can be repeated as frequently as every 24 hours.
# [4] = tested on: physical fatigue syndrome; assay: Post-athletic activity fatigue (Example 25); assay type: in vivo, human; conditions: 1-2 gm/day, preceding six months; usually 8-10 days
# From the text: The physical fatigue syndrome following intense athletic activity in competitive sports which usually persists for 8-10 days in athletes was gone in 2-3 days in individuals who had ingested methylsulfonylmethane (from 1-2 gm/day in split dosages) for the preceding six months.
# [5] = tested on: pruritis, acne, acne rosacea; assay: Connective tissue and dermatological disorders (Example 13); assay type: in vivo, human
# From the text: Teenagers found methylsulfonylmethane in cola drinks a particularly acceptable satisfactory combination when treating acne. With rosacea, visual improvement was much slower.
# mucous membranes = assay: Binding of labeled 35-S dimethyl sulfone to mucous membranes by autoradiography; conditions: 35-S labeled
# From the text: 1. Reducing the adverse response to inhalant allergens. This action may be due entirely or in part to a physical blocking action. Labeled 35-S dimethyl sulfone binds tightly to the surface of mucous membranes and by autoradiography, the membranes appears to be coated, as with a paint.
smiles,measurement,setting,value
CS(C)(=O)=O [methylsulfonylmethane],development of lymphomas,lymphomas; compared with control,significant delay
same,tumor incidence,lymphomas; compared with control,decreased
same,joint involvement,lymphomas; only grossly examined,marked reduction
same,titer of primary IgM and secondary IgG,lymphomas,increased titer
same,organism in two stool specimens,Giardia lamblia; collected one week apart,free of the organism
same,symptoms by the eighth day,Giardia lamblia; one subject,asymptomatic
same,outcome in subject's partner,"Trichomonas vaginalis; 500 mg twice daily, two weeks",successfully treated
same,reinfection,"Trichomonas vaginalis; daily douche of 5% aqueous, one week",cleared
same,blood level in healthy animals,[1]; healthy animals often,at least 1 ppm
same,methylsulfonylmethane in the humoral fluid,[1]; with maturity,less than 0.5 ppm
same,primary IgM and secondary IgG responses to sheep erythrocytes (SRBC),[2],significantly enhancement
same,tnp-ficoll response,[2],significant suppression
same,tolerated infusion rate,[3]; i.v. infusion,≤ 2 gm/kg/hr
same,side effect at infusion rate as high as 2 gm/kg/hr,[3],light-headedness
same,side effect at infusion rate as high as 2 gm/kg/hr,[3]; listed as dimethylsulfone,transient light-headedness
same,duration of physical fatigue syndrome,[4],2 to 3 days
same,response of pruritis and acne,[5]; about 100-1000 mg per day,respond promptly
same,response of dermatological problems,[5]; diet supplemented,respond favorably
same,visual improvement with rosacea,[5]; in vivo,much slower
same,time before telangiectasis diminished,"[5]; subject three, 500 mg daily",at least several weeks
same,binding to the surface of mucous membranes,mucous membranes,binds tightly
